We go through four molecules from PMC6984391, “Anion carriers as potential treatments for cystic fibrosis: transport in cystic fibrosis cells, and additivity to channel-targeting drugs” (Chemical Science, 2019).

The structures appear in SMILES notation.

One data set concerns YFP-CFBE cells. Briefly: YFP fluorescence plate reader assay of anion transport in YFP-CFBE cells. Format: cell-based. Particulars: for anion transport in YFP-CFBE cells (in words) / concentration–response relationship in YFP-CFBE compared with YFP-FRT cells: 1–50 μM; for anionophore concentration matching the effect of UTP (1 mM): anion transport equivalent to CaCC activation, YFP-CFBE cells; for effect of CaCC activation on anionophore-mediated anion transport: anionophore 50 μM with UTP 1 mM; for effect of CaCCinh-A01 on transport by anionophore: anionophore 50 μM, CaCCinh-A01 10 μM. An excerpt: To begin to test anionophores in CF airway epithelial cells, we utilised the CF bronchial epithelial cell line CFBE41o^– engineered to express YFP-H148Q/I152L (YFP-CFBE cells).[34],[35] One advantage of using YFP-CFBE cells is that they endogenously express the Ca^2+-activated Cl^– channel (CaCC), unlike YFP-FRT cells.[33] Thus, using YFP-CFBE cells, we directly compared anion transport by anionophores with that of the CaCC, an alternative pathway to restore anion transport in CF.[13]
FRT cells stably expressing the halide sensor YFP-H148Q/I152L6 were generous gifts of AS Verkman (University of California, San Francisco), while CFBE41o- cells7 stably expressing YFP (YFP-CFBE cells) were a generous gift of LJV Galietta (Telethon Institute for Genetics and Medicine). YFP-FRT cells were cultured as described previously for FRT cells8 except that media contained 10% fetal bovine serum, 2 mM L-glutamine and the selection agent G418 (YFP-FRT cells, 0.5 mg ml-1; WT-CFTR-YFP-FRT cells, 0.75 mg ml-1) or zeocin (F508del-CFTR-YFP-FRT cells, 0.5 mg ml-1). YFP-CFBE cells were cultured in minimal essential medium (MEM) supplemented with 10% fetal bovine serum, 2 mM L-glutamine, 100 U ml-1 penicillin and […] streptomycin. All cells were incubated at 37 °C in a humidified atmosphere with 5% CO2.
For fluorescence microplate reader studies, cells were seeded in 96-well plates and grown in culture media at 37 °C in a humidified atmosphere with 5% CO2 for 3 – 4 days until […]
90% confluent. […]
Fluorescence plate reader assay […]
quenching of YFP fluorescence at 37 °C using a microplate reader following the method of Galietta et al..9 The microplate reader (model: FLUORstar Omega; BMG LABTECH Ltd., Aylesbury, UK) was equipped with a syringe pump and excitation (500 ± 10 nm) and emission (535 ± 15 nm) filters (Chroma Technology GmbH, Olching, Germany). After washing cells twice with PBS (composition (mM): 137 NaCl, 2.7 KCl, 8.1 Na2HPO4, 1.5 KH2PO4, 1 CaCl2 and 0.5 MgCl2, pH 7.40), cells were incubated with test anionophores (1 – 50 µM) or the vehicle (DMSO [0.1 – 0.5% v v-1]) in 40 µl of PBS for 10 – 120 minutes according to the experimental design. Other compounds, including forskolin, ivacaftor and channel inhibitors were added to […]
the PBS bathing cells 10 minutes prior to PBS iodide addition, whereas UTP was added to cells with the PBS iodide solution. Fluorescence was measured for 14 seconds; 2 seconds before and 12 seconds after injection of 110 µl PBS iodide solution (137 mM Cl- replaced by I-) into each well (to obtain a final concentration of I- of 100 mM).
We expressed cell fluorescence values (F) relative to the fluorescence value immediately before I- injection (F0), excluding the initial decrease, which likely represents the quenching of extracellular YFP released from cells and signal reduction accompanying the increase in solution volume bathing cells. To quantify anion transport by test anionophores, we determined the initial slope of the fluorescence decay following I - addition by fitting first order exponential functions to the last 12 seconds of each fluorescence recording. In each experim ent, n values represent the mean of two replicates and all treatments were tested at least three times using different microplates. […]
FRT cells was selected and the cells were perfused with (i) PBS for 5 minutes then (ii) PBS containing I- (10 mM) (made by preparing PBS with 127 mM NaCl to maintain osmolarity) for 5 minutes and finally (iii) PBS for 30 minutes to remove thoroughly I- from the perfusion chamber. YFP-FRT cells were repeatedly treated with I- (10 mM) and then washed with PBS […]
During all interventions, the rate of solution perfusion was 8 – 10 ml min-1; temperature was 37 °C and except for the first 15 minutes of PBS washing, no data were collected between cycles of I- perfusion and PBS […]
For cell fluorescence measurements, we used the Volocity (Improvision) data acquisition and analysis system and a cooled CCD camera (Hamamatsu ORCA ER firewall) […]

Another data set relates to YFP-FRT cells. Briefly: IncuCyte ZOOM apoptosis (annexin V red) in YFP-FRT cells. Format: cell-based. Particulars: for time from which apoptosis is apparent: 30 and 50 μM, P < 0.05 vs. DMSO; for induction of apoptosis: all concentrations tested, 24 h period. As to the method:
To test for the induction of apoptosis by anionophores, we also used the IncuCyte ZOOMTM (Essen Bioscience) live-cell analysis system. YFP-FRT cells were seeded and grown on 96-well plates as described above for cell viability studies. After 48 h, the YFP-FRT culture media was replaced with fresh culture media containing test anionophores or the vehicle (DMSO 0.5% v v-1) and IncuCyte annexin V red reagent (Essen Bioscience) was added following the manufacturer’s instructions before the YFP-FRT cells were transferred to the IncuCyte ZOOMTM. At 2 h intervals over a 24 h period, 4 images of each well on 96-well plates were acquired; the phase contrast images were used to determine the total number of cells per well, while the fluorescence images to identify the number of apoptotic cells labelled red by the IncuCyte annexin V red reagent. In each experiment, one data point is the average value […]
Except for ivacaftor and lumacaftor (Selleck Chemicals; Stratech Scientific Ltd., Newmarket, UK), chemicals were supplied by the Sigma-Aldrich Company Ltd. (now Merck KGaA) (Gillingham, UK). UTP was dissolved in distilled water, forskolin in methanol, while anionophores and channel modulators were prepared in DMSO. Stock solutions were stored at –20 °C except those of anionophores, which were stored at room temperature. Immediately before use, stock solutions were diluted to final concentrations. Precautions against light-sensitive reactions were observed when using anionophores and channel modulators. DMSO […]
Previous work has identified that some anionophores trigger apop totic cell death.18,19,2018,19 Using the IncuCyte ZOOMTM live-cell analysis system and the IncuCyte annexin V red reagent, we assessed whether the anionophores 11, 12, 15 and 19 induce […]
concentrations ≥ 10 µM with the effects of 30 and 50 µM apparent from as early as 2 h (P < […]
concentrations tested over the 24 h period studied (P > 0.05 vs. DMSO 0.5% v v-1) (Fig. S25). […]
the data re-affirm the promising biological activity of anionophore 11.

Details of data set [1]: method as in ref [16 and 25], [20], [21], [22], [23], [24], [29] (Reference column). To be noted: 1H NMR titrations with Bu4N^+Cl^– in DMSO-d6/H2O (200 : 1) at 298 K; ref [16 and 25], [20], [21], [22], [23], [24], [29]; cited from earlier work.

As for `CCOC(=O)[C@]12CC[C@@H](NC(=S)Nc3ccc([N+](=O)[O-])cc3)C[C@@H]1C[C@@H](NC(=S)Nc1ccc([N+](=O)[O-])cc1)CC2` [Compound 12], in the data set on YFP-CFBE cells (10 μM), the “effect of increasing incubation period from 10 to 120 minutes on anion transport” value (“effect of increasing incubation period” for short) was “increased noticeably”. Also, the “effect of increasing incubation period” value in the data set with YFP-CFBE cells (50 μM) is reported as “dramatic acceleration”. In addition, in the data set on YFP-CFBE cells, the “anion transport in YFP-CFBE cells (in words)” value (“anion transport … (in words)” below) is recorded as “mediated anion transport”, the “concentration–response relationship in YFP-CFBE compared with YFP-FRT cells” value was “identical”, the “anionophore concentration matching the effect of UTP (1 mM)” value was found to be 1 µM and the “effect of CaCC activation on anionophore-mediated anion transport” value (“effect of CaCC activation” below) was “either without effect or weakly additive”. Moreover, the “effect of CaCCinh-A01 on transport by anionophore” value (“effect of CaCCinh-A01 on transport” for short) in the data set on YFP-CFBE cells is on record as “not observed”. Besides, in the data set with YFP-FRT cells, the “time from which apoptosis is apparent” value is not below 2 h and the induction of apoptosis result was “positive effects”.
Take `CCOC(=O)[C@]12CC[C@@H](NC(=S)Nc3cc(C(F)(F)F)cc(C(F)(F)F)c3)C[C@@H]1C[C@@H](NC(=S)Nc1cc(C(F)(F)F)cc(C(F)(F)F)c1)CC2` [Compound 15]: in the data set on YFP-CFBE cells, the “anion transport … (in words)” value was “mediated anion transport”, the “concentration–response relationship in YFP-CFBE compared with YFP-FRT cells” value was “less efficacious”, the “anionophore concentration matching the effect of UTP (1 mM)” value was found to be 1 µM and the “effect of CaCC activation” value was “either without effect or weakly additive”. Also, in the data set with YFP-CFBE cells, the “effect of CaCCinh-A01 on transport” value is on record as “not observed”. Moreover, in the data set with YFP-FRT cells, the “time from which apoptosis is apparent” value was not below 2 h and the induction of apoptosis entry is given as “positive effects”. In addition, in data set [1], the “K a to Cl^– in DMSO” value is given as 2.4 × 10^3 M^–1.
Consider `FC(F)(F)c1ccc(NC(=S)NCCN(CCNC(=S)Nc2ccc(C(F)(F)F)cc2)CCNC(=S)Nc2ccc(C(F)(F)F)cc2)cc1` [Compound 18], for which the “K a to Cl^– in DMSO” value in data set [1] is 9.6 × 10^2 M^–1.
Take `FC(F)(F)c1cc(NC(=S)NCCN(CCNC(=S)Nc2cc(C(F)(F)F)cc(C(F)(F)F)c2)CCNC(=S)Nc2cc(C(F)(F)F)cc(C(F)(F)F)c2)cc(C(F)(F)F)c1` [Compound 19]: the “effect of increasing incubation period” value with YFP-CFBE cells (10 μM) was “increased noticeably”. Moreover, in the data set on YFP-CFBE cells (50 μM), the “effect of increasing incubation period” value was “increased noticeably”. For the same molecule, in the data set on YFP-CFBE cells, the “anion transport … (in words)” value is “mediated anion transport”, the “concentration–response relationship in YFP-CFBE compared with YFP-FRT cells” value is “similar”, the “anionophore concentration matching the effect of UTP (1 mM)” value stood at 1 µM and the “effect of CaCC activation” value was “strongly additive”. Also, the “effect of CaCCinh-A01 on transport” value with YFP-CFBE cells is “direct inhibitory effect”. In addition, in the data set with YFP-FRT cells, the “time from which apoptosis is apparent” value is not below 2 h and the induction of apoptosis result is “positive effects”. In addition, the “K a to Cl^– in DMSO” value in data set [1] is recorded as 4.4 × 10^3 M^–1.
